These results are taken from DBAASP.

Test in all cases: ≥ marks a high value that may be exact or a test limit, other limits are often not marked, values filed in µg/mL are converted to µM
The test system of test [1] is Candida albicans ATCC 2002.
The subject of test [2] is Escherichia coli ATCC 25922.
Test [3] deals with Pseudomonas aeruginosa CMCCB 10104.
Test [4] has as its system Staphylococcus aureus ATCC 25923.
Test [5] has as its system Escherichia coli ATCC 25726.
Test [6] relates to Bacillus subtilis.
Test [7] relates to Escherichia coli ML-35p.
In test [8] the test system is Pseudomonas aeruginosa ATCC 27853.
The subject of test [9] is Pseudomonas aeruginosa PAO1.
The test system of test [10] is Staphylococcus aureus ATCC 2592.
For test [11], the system named is Staphylococcus aureus ATCC 43300.

Structures are written as SMILES. In brackets after ≈: the same amount, converted by molar mass. Where only a bound is given, the exact number is not on record here.

Turning to `CC[C@H](C)[C@H](NC(=O)CNC(=O)[C@H](CS)NC(=O)[C@H](Cc1ccccc1)NC(=O)[C@H](CCCCN)NC(=O)[C@H](CCCN=C(N)N)NC(=O)[C@@H]1CCCN1C(=O)[C@H](CCCN=C(N)N)NC(=O)[C@H](CC(=O)O)NC(=O)[C@@H]1CCCN1C(=O)[C@H](C)N)C(=O)N[C@@H](CC(C)C)C(=O)NCC(=O)O` [APDRPRKFCGILG], the MIC in [1] is no less than 140 µM; in test [2], greater than 140 µM; in test [3], no less than 140 µM; in test [4], greater than 140 µM.

For `CC[C@H](C)[C@H](NC(=O)[C@H](CC(N)=O)NC(=O)[C@@H](NC(=O)[C@H](C)N)[C@@H](C)O)C(=O)N1CCC[C@H]1C(=O)N[C@@H](Cc1ccccc1)C(=O)N[C@@H](CCCCN)C(=O)N[C@H](C(=O)N[C@@H](Cc1cnc[nH]1)C(=O)N[C@@H](Cc1ccccc1)C(=O)N[C@@H](CCCN=C(N)N)C(=O)N[C@H]1CSSC[C@@H](C(=O)O)NC(=O)[C@H](Cc2ccccc2)NC(=O)[C@H](C)NC(=O)[C@H](C)NC(=O)[C@H](CCCCN)NC1=O)C(C)C` [ATNIPFKVHFRCKAAFC], the MIC in test [1] is 24.1 µM (≈ 47 µg/mL); in test [2], 12 µM (≈ 23.5 µg/mL); in [3], 24.1 µM (≈ 47 µg/mL); in test [4], greater than 24.1 µM.

On to `CSCC[C@H](NC(=O)[C@H](CCCCN)NC(=O)[C@@H](NC(=O)[C@H](CCC(=O)O)NC(=O)[C@H](CCCCN)NC(=O)[C@H](CCCCN)NC(=O)[C@H](CCCCN)NC(=O)[C@H](CCCCN)NC(=O)[C@H](CC(C)C)NC(=O)[C@H](CCSC)NC(=O)[C@@H](N)CCC(=O)O)C(C)C)C(=O)N[C@@H](CCC(=O)O)C(=O)N[C@@H](CCCN=C(N)N)C(=O)N[C@@H](CCCCN)C(=O)N[C@H](C(=O)O)[C@@H](C)O` [EMLKKKKEVKMERKT], for which the MIC in test [1] is no less than 105 µM; in test [2] it was greater than 105 µM; in [3], no less than 105 µM; in [4], greater than 105 µM.

Regarding `CC[C@H](C)[C@H](NC(=O)[C@H](Cc1ccc(O)cc1)NC(=O)[C@H](CO)NC(=O)[C@H](CS)NC(=O)[C@H](Cc1ccccc1)NC(=O)[C@H](CC(C)C)NC(=O)[C@H](CC(N)=O)NC(=O)[C@H](CCC(=O)O)NC(=O)[C@H](CCSC)NC(=O)[C@H](CC(C)C)NC(=O)[C@@H](NC(=O)[C@@H](NC(=O)[C@H](CC(=O)O)NC(=O)[C@H](CCC(=O)O)NC(=O)[C@H](CCC(=O)O)NC(=O)[C@H](C)NC(=O)[C@H](CC(N)=O)NC(=O)[C@@H](N)CCC(=O)O)[C@@H](C)CC)C(C)C)C(=O)N[C@H](C(=O)NCC(=O)N[C@@H](CO)C(=O)N[C@@H](C)C(=O)N[C@@H](CC(=O)O)C(=O)N[C@@H](CO)C(=O)N[C@@H](Cc1ccccc1)C(=O)N[C@@H](Cc1c[nH]c2ccccc12)C(=O)N[C@H](C(=O)O)[C@@H](C)O)C(C)C` [ENAEEDIVLMENLFCSYIVGSADSFWT], the MIC is no less than 64.9 µM in test [1], greater than 64.9 µM in test [2], no less than 64.9 µM in [3] and greater than 64.9 µM in test [4].

For `CC[C@H](C)[C@H](NC(=O)[C@H](CC(N)=O)NC(=O)[C@H](Cc1ccccc1)NC(=O)[C@H](CCSC)NC(=O)[C@H](CC(N)=O)NC(=O)[C@@H](N)CCC(=O)O)C(=O)N[C@@H](CCCCN)C(=O)N[C@@H](CO)C(=O)N[C@@H](CO)C(=O)N[C@H](C(=O)N[C@@H](CCC(=O)O)C(=O)N[C@@H](CO)C(=O)N[C@@H](CC(=O)O)C(=O)N[C@@H](CO)C(=O)N[C@@H](Cc1ccccc1)C(=O)N[C@@H](Cc1c[nH]c2ccccc12)C(=O)NCC(=O)O)C(C)C` [ENMFNIKSSVESDSFWG], the MIC in [1] was no less than 101 µM; in test [2], greater than 101 µM; in test [3] it was no less than 101 µM; in test [4] it was greater than 101 µM.

Take `CC[C@H](C)[C@@H]1NC(=O)[C@H](C)NC(=O)[C@@H](NC(=O)[C@H](Cc2ccc(O)cc2)NC(=O)[C@H](C)NC(=O)[C@H](C)NC(=O)[C@@H]2CCCN2C(=O)[C@@H](NC(=O)[C@@H](NC(=O)[C@H](CCCCN)NC(=O)[C@@H](NC(=O)[C@H](C)NC(=O)[C@H](C)NC(=O)[C@H](CCCCN)NC(=O)[C@@H](NC(=O)[C@H](CC(C)C)NC(=O)CNC(=O)CNC(=O)[C@H](CCSC)NC(=O)[C@@H](N)Cc2ccccc2)[C@@H](C)CC)[C@@H](C)O)[C@@H](C)CC)C(C)C)CSSC[C@@H](C(=O)O)NC(=O)[C@H](CCCCN)NC(=O)[C@H](CCCCN)NC(=O)[C@H]([C@@H](C)O)NC1=O` [FMGGLIKAATKIVPAAYCAITKKC]: the minimum inhibitory concentration (MIC) stood at 25 µM (≈ 62.5 µg/mL) in [5] and 3.2 µM (≈ 7.99 µg/mL) in test [4].

Take `CC[C@H](C)[C@H](NC(=O)[C@H](CCCCN)NC(=O)[C@H](CCCCN)NC(=O)CNC(=O)[C@H](C)NC(=O)CNC(=O)[C@H](Cc1ccccc1)NC(=O)[C@@H](NC(=O)[C@H](CO)NC(=O)CNC(=O)[C@H](CC(C)C)NC(=O)[C@H](CC(C)C)NC(=O)CN)[C@@H](C)CC)C(=O)N[C@@H](C)C(=O)N[C@H]1CSSC[C@@H](C(=O)O)NC(=O)[C@H](CC(C)C)NC(=O)CNC(=O)[C@H](CO)NC(=O)[C@H](CC(C)C)NC(=O)[C@H](C)NC1=O` [GLLGSIFGAGKKIACALSGLC]: the values for the minimum inhibitory concentration (MIC) in [5] and in [4] were 15.7 µM (≈ 31 µg/mL) and 31.6 µM (≈ 62.4 µg/mL), respectively.

Regarding `CC[C@H](C)[C@H](N)C(=O)N[C@@H](CC(C)C)C(=O)NCC(=O)N[C@@H](CCCCN)C(=O)N[C@@H](CC(C)C)C(=O)N[C@@H](CC(C)C)C(=O)N[C@@H](CO)C(=O)N[C@H](C(=O)N[C@@H](C)C(=O)N[C@@H](C)C(=O)N[C@@H](CCCCN)C(=O)N[C@@H](CC(C)C)C(=O)N[C@@H](CC(C)C)C(=O)N[C@@H](CO)C(=O)N[C@@H](CCCCN)C(=O)N[C@@H](CC(C)C)C(N)=O)[C@@H](C)O` [ILGKLLSTAAKLLSKL], the MIC is 16 µM (≈ 26.7 µg/mL) in test [5] and 2 µM (≈ 3.34 µg/mL) in test [4].

For the compound `CC[C@H](C)[C@H](N)C(=O)N[C@H](C(=O)N[C@H](C(=O)N1CCC[C@H]1C(=O)N1CCC[C@H]1C(=O)N[C@H](C(=O)N[C@H](C(=O)N[C@@H](CCCCN)C(=O)N[C@@H](CC(=O)O)C(=O)N[C@H](C(=O)N[C@@H](CC(C)C)C(=O)N[C@@H](CCCCN)C(=O)N[C@@H](CCCCN)C(=O)N[C@@H](Cc1ccccc1)C(=O)N[C@@H](Cc1ccccc1)C(=O)N[C@@H](CCCCN)C(=O)NCC(=O)NCC(=O)N[C@H](C(=O)N[C@@H](C)C(=O)NCC(=O)N[C@H](C(=O)N[C@@H](CCSC)C(=O)NCC(=O)N[C@@H](CCCCN)C(=O)N[C@@H](CO)C(=O)N[C@@H](CCC(N)=O)C(=O)O)C(C)C)[C@@H](C)CC)[C@@H](C)O)[C@@H](C)CC)[C@@H](C)CC)[C@@H](C)CC)[C@@H](C)O` [ITIPPIIKDTLKKFFKGGIAGVMGKSQ], the MIC is no less than 80 µM in test [5] and 40 µM (≈ 116 µg/mL) in test [4].

For `CC[C@H](C)[C@H](NC(=O)[C@H](C)NC(=O)[C@@H](NC(=O)[C@@H](NC(=O)[C@H](CCCCN)NC(=O)CNC(=O)[C@H](CCCCN)NC(=O)[C@H](CC(=O)O)NC(=O)[C@H](CCCN=C(N)N)NC(=O)[C@@H](NC(=O)[C@@H](N)CO)[C@@H](C)CC)[C@@H](C)O)[C@@H](C)CC)C(=O)N[C@@H](CC(=O)O)C(=O)N[C@@H](CC(C)C)C(=O)N[C@@H](C)C(=O)N[C@@H](CCCCN)C(=O)N[C@@H](CO)C(=O)N[C@@H](C)C(=O)NCC(=O)N[C@H](C(=O)NCC(=O)N[C@H](C(=O)N[C@@H](CC(C)C)C(=O)N[C@@H](CCCCN)C(=O)N[C@H](C(=O)N[C@@H](CC(C)C)C(=O)N[C@@H](CCSC)C(=O)N[C@H]1CSSC[C@@H](C(=O)O)NC(=O)[C@H](CO)NC(=O)[C@H](CCCCN)NC(=O)[C@H](CC(=O)O)NC(=O)[C@H](CC(C)C)NC(=O)[C@H](CCCCN)NC1=O)[C@@H](C)O)C(C)C)[C@@H](C)O` [SIRDKGKTIAIDLAKSAGTGVLKTLMCKLDKSC], the MIC in [6] amounted to 8.66 µM (≈ 30 µg/mL); in [1], 2.89 µM (≈ 9.99 µg/mL); in test [7] it was 2.89 µM (≈ 9.99 µg/mL); in test [8], 0.721 µM (≈ 2.5 µg/mL); in test [9], 0.721 µM (≈ 2.5 µg/mL); in test [10] it was 2.89 µM (≈ 9.99 µg/mL). The MIC in [11] came out at 2.89 µM (≈ 9.99 µg/mL).

As for `CC[C@H](C)[C@H](NC(=O)[C@H](C)NC(=O)[C@H](CCSC)NC(=O)[C@@H](NC(=O)[C@H](CCCCN)NC(=O)[C@@H](NC(=O)[C@H](CCCCN)NC(=O)[C@H](CC(=O)O)NC(=O)[C@H](CCCN=C(N)N)NC(=O)[C@@H](NC(=O)[C@@H](N)CO)[C@@H](C)CC)[C@@H](C)CC)[C@@H](C)O)C(=O)N[C@@H](CC(=O)O)C(=O)N[C@@H](CC(C)C)C(=O)N[C@@H](C)C(=O)N[C@@H](CCCCN)C(=O)N[C@@H](CO)C(=O)N[C@@H](C)C(=O)NCC(=O)N[C@H](C(=O)NCC(=O)N[C@H](C(=O)N[C@@H](CC(C)C)C(=O)N[C@@H](CCCCN)C(=O)N[C@H](C(=O)N[C@@H](CC(C)C)C(=O)N[C@H](C(=O)N[C@H]1CSSC[C@@H](C(=O)O)NC(=O)[C@H](CO)NC(=O)[C@H](CCCCN)NC(=O)[C@H](CC(=O)O)NC(=O)[C@H](CC(C)C)NC(=O)[C@H](CCCCN)NC1=O)[C@@H](C)CC)[C@@H](C)O)C(C)C)[C@@H](C)O` [SIRDKIKTMAIDLAKSAGTGVLKTLICKLDKSC], the MIC came to 11.4 µM (≈ 40 µg/mL) in test [6]; 2.84 µM (≈ 9.99 µg/mL) in test [1]; 2.84 µM (≈ 9.99 µg/mL) in test [7]; 1.42 µM (≈ 5 µg/mL) in [8]; 1.42 µM (≈ 5 µg/mL) in test [9]; 2.84 µM (≈ 9.99 µg/mL) in test [10]. Besides, in test [11], the MIC is 4.26 µM (≈ 15 µg/mL).
